How the values were obtained:
[1] = molecular target: T1, Choline O-acetyltransferase (Gallus gallus) (UniProt Q90YJ9); test: Inhibition of chick optic lobe choline acetyltransferase (ChAT) at 10e-4 M
T1 sequence (whole entry): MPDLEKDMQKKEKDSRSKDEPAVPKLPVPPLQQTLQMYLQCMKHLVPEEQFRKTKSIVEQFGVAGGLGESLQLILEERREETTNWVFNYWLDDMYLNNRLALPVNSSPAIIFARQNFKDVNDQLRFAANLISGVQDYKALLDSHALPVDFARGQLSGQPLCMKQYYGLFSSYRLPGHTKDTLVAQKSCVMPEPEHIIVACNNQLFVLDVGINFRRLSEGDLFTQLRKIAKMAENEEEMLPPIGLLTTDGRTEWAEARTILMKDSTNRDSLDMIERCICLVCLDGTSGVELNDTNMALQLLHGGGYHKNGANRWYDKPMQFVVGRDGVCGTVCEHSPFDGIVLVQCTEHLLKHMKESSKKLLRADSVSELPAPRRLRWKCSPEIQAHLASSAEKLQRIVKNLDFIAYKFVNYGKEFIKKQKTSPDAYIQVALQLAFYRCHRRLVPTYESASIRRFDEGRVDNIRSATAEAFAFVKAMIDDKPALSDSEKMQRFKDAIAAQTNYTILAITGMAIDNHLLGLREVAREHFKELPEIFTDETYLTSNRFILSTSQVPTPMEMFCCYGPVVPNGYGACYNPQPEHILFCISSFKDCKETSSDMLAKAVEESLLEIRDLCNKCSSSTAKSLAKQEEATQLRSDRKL

[2] = molecular target: T2, Choline O-acetyltransferase (Gallus gallus, UniProt Q90YJ9); test: Compound was tested in vitro for inhibitory activity against chick optic lobe choline acetyltransferase (ChAT)
T2 sequence (Q90YJ9 whole entry): T1 sequence (whole entry)

[3] = molecular target: T3, Choline O-acetyltransferase (Rattus norvegicus, UniProt P32738); test: Compound was tested in vitro for inhibitory activity against rat choline acetyltransferase (ChAT)
T3 sequence (P32738 whole entry): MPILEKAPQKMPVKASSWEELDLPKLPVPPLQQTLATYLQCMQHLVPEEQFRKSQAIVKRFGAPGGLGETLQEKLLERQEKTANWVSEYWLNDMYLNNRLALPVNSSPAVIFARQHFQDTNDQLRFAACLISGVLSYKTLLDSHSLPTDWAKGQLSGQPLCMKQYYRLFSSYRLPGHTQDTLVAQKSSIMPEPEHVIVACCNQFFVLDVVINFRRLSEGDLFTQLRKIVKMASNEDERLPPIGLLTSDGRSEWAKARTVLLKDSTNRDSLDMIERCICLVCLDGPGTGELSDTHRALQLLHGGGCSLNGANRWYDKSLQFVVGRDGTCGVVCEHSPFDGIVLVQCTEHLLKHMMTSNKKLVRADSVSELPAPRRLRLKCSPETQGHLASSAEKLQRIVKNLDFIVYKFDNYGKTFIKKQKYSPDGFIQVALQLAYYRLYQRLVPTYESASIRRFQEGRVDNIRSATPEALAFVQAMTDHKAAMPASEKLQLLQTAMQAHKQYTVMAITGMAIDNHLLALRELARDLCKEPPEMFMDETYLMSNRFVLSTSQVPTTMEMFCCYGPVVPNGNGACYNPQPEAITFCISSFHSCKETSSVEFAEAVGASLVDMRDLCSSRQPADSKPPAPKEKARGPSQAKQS

[4] = molecular target: T2, Choline O-acetyltransferase; test: Compound was tested in vitro for inhibitory activity against chick choline acetyltransferase (ChAT)

Row | inhibition [1] [%] | SMILES | other results
1 | < 1 | C[n+]1ccc(/C=N/c2nc3ccccc3[nH]2)cc1 | 
2 | < 1 | CCCC[n+]1ccc(/C=C/c2nc3cc(C)c(C)cc3[nH]2)cc1 | 
3 | < 1 | Cc1cc2nc(/C=C/c3cccnc3)[nH]c2cc1C | 
4 | < 1 | Cc1cc2nc(/C=C/c3ccncc3)[nH]c2cc1C | 
5 | 78 | NC(=O)C[n+]1ccc(/C=C/c2cccc3ccccc23)cc1 | IC50 [2]: 37 µM
6 | < 1 | CCCC[n+]1cccc(/C=C/c2nc3cc(C)c(C)cc3[nH]2)c1 | 
7 | 5 | C(=C\c1cccc2ccccc12)/c1ccncc1 | 
8 | < 1 | CCCC[n+]1ccc(/C=C/c2ncc[nH]2)cc1 | 
9 | < 1 | CCCCCCCCCC[n+]1ccc(/C=C/c2nc3cc(C)c(C)cc3[nH]2)cc1 | 
10 | < 1 | Cc1cc2nc(/C=C/c3ccc[n+](C)c3)[nH]c2cc1C | 
11 | < 1 | Cc1cc2nc(/C=C/c3cc[n+](C)cc3)[nH]c2cc1C | 

Row | SMILES | inhibition [1] [%] | other results
12 | C[n+]1ccc(/C=C/c2cccc3ccccc23)cc1 | 73 | IC50 [2]: 40 µM
13 | CCC[n+]1ccc(/C=C/c2cccc3ccccc23)cc1 | 80 | IC50 [3]: 30 µM; IC50 [4]: 58 µM; IC50 [2]: 29 µM
